Tested on: 379773-124-R-J2-PDC spheroid viability
Test: Anticancer human tumor 379773-124-R-J2-PDC patient-derived endometrial carcinoma cell line growth inhibition [POLQ]
Settings: spheroids with HUVEC and MSC; for IC50: curve of first compound; for viability, T/C: stronger effect = lower value
Summary of the method: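 Patient-derived tumour cells were co-cultured with HUVEC and mesenchymal stem cells as multicellular spheroids at 37 °C. They were treated with POLQ inhibitors (novobiocin, ART-558, RP6685) alone or combined with other agents. Top concentrations were at or near clinical Cmax (otherwise 10 microM; SN-38 at 1 microM), decreasing in half-log steps.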

[1] = second compound 0.0316 µM, first compound 0.0316 µM
[2] = second compound 0.0316 µM, first compound 0.1 µM
[3] = second compound 0.0316 µM, first compound 0.316 µM
[4] = second compound 0.0316 µM, first compound 1 µM
[5] = second compound 0.1 µM, first compound 0.0316 µM
[6] = second compound 0.1 µM, first compound 0.1 µM
[7] = second compound 0.1 µM, first compound 0.316 µM
[8] = second compound 0.1 µM, first compound 1 µM
[9] = second compound 0.316 µM, first compound 0.0316 µM
[10] = second compound 0.316 µM, first compound 0.1 µM
[11] = second compound 0.316 µM, first compound 0.316 µM
[12] = second compound 0.316 µM, first compound 1 µM
[13] = second compound 1 µM, first compound 0.0316 µM
[14] = second compound 1 µM, first compound 0.1 µM
[15] = second compound 1 µM, first compound 0.316 µM
[16] = second compound 1 µM, first compound 1 µM
[17] = second compound 3.16 µM, first compound 0.0316 µM
[18] = second compound 3.16 µM, first compound 0.1 µM
[19] = second compound 3.16 µM, first compound 0.316 µM
[20] = second compound 3.16 µM, first compound 1 µM
[21] = second compound 10 µM, first compound 0.0316 µM
[22] = second compound 10 µM, first compound 0.1 µM
[23] = second compound 10 µM, first compound 0.316 µM
[24] = second compound 10 µM, first compound 1 µM
[25] = second compound 0.0316 µM, first compound 0.00316 µM
[26] = second compound 0.0316 µM, first compound 0.01 µM
[27] = second compound 0.1 µM, first compound 0.00316 µM
[28] = second compound 0.1 µM, first compound 0.01 µM
[29] = second compound 0.316 µM, first compound 0.00316 µM
[30] = second compound 0.316 µM, first compound 0.01 µM
[31] = second compound 1 µM, first compound 0.00316 µM
[32] = second compound 1 µM, first compound 0.01 µM
[33] = second compound 3.16 µM, first compound 0.00316 µM
[34] = second compound 3.16 µM, first compound 0.01 µM
[35] = second compound 10 µM, first compound 0.00316 µM
[36] = second compound 10 µM, first compound 0.01 µM
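Also: spheroids exposed to drugs for seven days before readout.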
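For viability, T/C in this document: percent viability relative to DMSO vehicle control taken as 100%.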

CC1COCCN1c1cc(C2(S(C)(=N)=O)CC2)nc(-c2ccnc3[nH]ccc23)n1 (stereo unspecified) + Nc1ccc(C#CCN(C(=O)Cc2ncc(C(F)(F)F)cc2C(F)(F)F)c2ccc(F)cc2)nn1
IC50 (second compound 0.0316 µM): 2.76 µM
IC50 (second compound 0.1 µM): 3.07 µM
IC50 (second compound 0.316 µM): 2.67 µM
IC50 (second compound 1 µM): 3.05 µM
IC50 (second compound 3.16 µM): 2.54 µM
IC50 (second compound 10 µM): 2.64 µM
viability, T/C [1]: 89.8%
viability, T/C [2]: 90.3%
viability, T/C [3]: 86.5%
viability, T/C [4]: 89.9%
viability, T/C (second compound 0.0316 µM, first compound 3.16 µM): 44.8%
viability, T/C (second compound 0.0316 µM, first compound 10 µM): 9.42%
viability, T/C [5]: 89.2%
viability, T/C [6]: 89.6%
viability, T/C [7]: 87.9%
viability, T/C [8]: 83.5%
viability, T/C (second compound 0.1 µM, first compound 3.16 µM): 49.1%
viability, T/C (second compound 0.1 µM, first compound 10 µM): 9.47%
viability, T/C [9]: 89.8%
viability, T/C [10]: 97.5%
viability, T/C [11]: 87.1%
viability, T/C [12]: 84.4%
viability, T/C (second compound 0.316 µM, first compound 3.16 µM): 44%
viability, T/C (second compound 0.316 µM, first compound 10 µM): 10.4%
viability, T/C [13]: 97.9%
viability, T/C [14]: 101%
viability, T/C [15]: 87.9%
viability, T/C [16]: 85.3%
viability, T/C (second compound 1 µM, first compound 3.16 µM): 48.1%
viability, T/C (second compound 1 µM, first compound 10 µM): 10.3%
viability, T/C [17]: 93.5%
viability, T/C [18]: 85.6%
viability, T/C [19]: 78.5%
viability, T/C [20]: 89.3%
viability, T/C (second compound 3.16 µM, first compound 3.16 µM): 41.3%
viability, T/C (second compound 3.16 µM, first compound 10 µM): 11.1%
viability, T/C [21]: 95.7%
viability, T/C [22]: 85.3%
viability, T/C [23]: 90.9%
viability, T/C [24]: 86.4%
viability, T/C (second compound 10 µM, first compound 3.16 µM): 43.2%
viability, T/C (second compound 10 µM, first compound 10 µM): 9.54%

COc1cccc(OCCCN)c1-c1cc(Nc2cnc(C#N)cn2)n[nH]1 + Nc1ccc(C#CCN(C(=O)Cc2ncc(C(F)(F)F)cc2C(F)(F)F)c2ccc(F)cc2)nn1
IC50 (second compound 0.0316 µM): 0.00621 µM
IC50 (second compound 0.1 µM): 0.00612 µM
IC50 (second compound 0.316 µM): 0.00636 µM
IC50 (second compound 1 µM): 0.00647 µM
IC50 (second compound 3.16 µM): 0.0064 µM
IC50 (second compound 10 µM): 0.00636 µM
viability, T/C [25]: 86.5%
viability, T/C [26]: 24.3%
viability, T/C [1]: 3.65%
viability, T/C [2]: 2.95%
viability, T/C [3]: 2.97%
viability, T/C [4]: 1.66%
viability, T/C [27]: 80.2%
viability, T/C [28]: 27.6%
viability, T/C [5]: 3.76%
viability, T/C [6]: 2.65%
viability, T/C [7]: 2.25%
viability, T/C [8]: 1.2%
viability, T/C [29]: 95.2%
viability, T/C [30]: 20.7%
viability, T/C [9]: 3.16%
viability, T/C [10]: 2.72%
viability, T/C [11]: 3.55%
viability, T/C [12]: 1.23%
viability, T/C [31]: 98.5%
viability, T/C [32]: 20.5%
viability, T/C [13]: 3.32%
viability, T/C [14]: 2.87%
viability, T/C [15]: 4.02%
viability, T/C [16]: 1.67%
viability, T/C [33]: 102%
viability, T/C [34]: 16.9%
viability, T/C [17]: 3.53%
viability, T/C [18]: 1.93%
viability, T/C [19]: 2.04%
viability, T/C [20]: 1.29%
viability, T/C [35]: 93.2%
viability, T/C [36]: 22%
viability, T/C [21]: 2.53%
viability, T/C [22]: 2.36%
viability, T/C [23]: 2.24%
viability, T/C [24]: 1.49%

Cn1ncnc1[C@H]1c2n[nH]c(=O)c3cc(F)cc(c23)N[C@@H]1c1ccc(F)cc1 + Nc1ccc(C#CCN(C(=O)Cc2ncc(C(F)(F)F)cc2C(F)(F)F)c2ccc(F)cc2)nn1
IC50 (second compound 0.0316 µM): > 0.1 µM
IC50 (second compound 0.1 µM): > 0.1 µM
IC50 (second compound 0.316 µM): > 0.1 µM
IC50 (second compound 1 µM): > 0.1 µM
IC50 (second compound 3.16 µM): > 0.1 µM
IC50 (second compound 10 µM): > 0.1 µM
viability, T/C (second compound 0.0316 µM, first compound 0.000316 µM): 103%
viability, T/C (second compound 0.0316 µM, first compound 0.001 µM): 86.2%
viability, T/C [25]: 94%
viability, T/C [26]: 85.8%
viability, T/C [1]: 68.6%
viability, T/C [2]: 53.7%
viability, T/C (second compound 0.1 µM, first compound 0.000316 µM): 89.8%
viability, T/C (second compound 0.1 µM, first compound 0.001 µM): 94.6%
viability, T/C [27]: 99.3%
viability, T/C [28]: 91.9%
viability, T/C [5]: 79.1%
viability, T/C [6]: 55.8%
viability, T/C (second compound 0.316 µM, first compound 0.000316 µM): 100%
viability, T/C (second compound 0.316 µM, first compound 0.001 µM): 102%
viability, T/C [29]: 93.6%
viability, T/C [30]: 86.3%
viability, T/C [9]: 72.5%
viability, T/C [10]: 64.2%
viability, T/C (second compound 1 µM, first compound 0.000316 µM): 97.7%
viability, T/C (second compound 1 µM, first compound 0.001 µM): 90.1%
viability, T/C [31]: 99.1%
viability, T/C [32]: 86.6%
viability, T/C [13]: 80.4%
viability, T/C [14]: 55.1%
viability, T/C (second compound 3.16 µM, first compound 0.000316 µM): 113%
viability, T/C (second compound 3.16 µM, first compound 0.001 µM): 91.5%
viability, T/C [33]: 98%
viability, T/C [34]: 102%
viability, T/C [17]: 67.5%
viability, T/C [18]: 58.2%
viability, T/C (second compound 10 µM, first compound 0.000316 µM): 87.7%
viability, T/C (second compound 10 µM, first compound 0.001 µM): 90.6%
viability, T/C [35]: 86.3%
viability, T/C [36]: 84%
viability, T/C [21]: 78.8%
viability, T/C [22]: 56.5%
